From ChEMBL document CHEMBL3507680, “University of Dundee, Gates Library screen for HepG2 cell viability”

Assay: Human HepG2 cell viability assay in 384 well format
Format: toxicity, cell-based
Design: dose 125 nL, time 70.5 hour; cytotoxicity at 70.5 h: concentration not given beside the values
Conditions: HepG2 cells, read-out: Inhibition

SMILES	cytotoxicity at 70.5 h
O=C(Oc1ccccc1)N1CCC(CNS(=O)(=O)c2cccnc2)CC1	20.9%
CC(C)(CNC(=O)NCCOc1cccc(F)c1)C(N)=O	-1.08%
CC(Cn1cccn1)NC(=O)NCc1cccnc1OC(C)C (stereo not drawn)	-4.84%
CNc1cnc(CC2COCCN(Cc3cccc(C)n3)C2)cn1 (stereo not drawn)	-2.94%
CC(Cn1cccn1)NC(=O)NCc1ccc(C(N)=O)cc1 (stereo not drawn)	-15.4%
Cc1cc(C(=O)N2CCc3nc(C4CCCN4)ncc3C2)cs1 (stereo not drawn)	-4.19%
COc1ncccc1CNc1cc(N2CCCC2CO)ncn1 (stereo not drawn)	-12%
CN(Cc1ccccn1)C(=O)C(c1ccccc1)N1CCSCC1 (stereo not drawn)	-7.59%
CNc1ncc(CN(C)C(=O)c2ccc(C3CCCO3)s2)cn1 (stereo not drawn)	-3.31%
Cc1nc(C)n(C2CCCN(C(=O)CCc3cn(C)nc3C)C2)n1 (stereo not drawn)	-0.365%
O=C1[C@H]2CN(C3CCOC3)C[C@H]2CN1c1ccccc1 (stereo partly drawn)	-1.16%
Cn1nnnc1SCCNC(=O)c1c[nH]nc1C1CCCCC1	-9.31%
CCC(O)CN1CCN(C(=O)c2ccn(C)c(=O)c2)CC1 (stereo not drawn)	-9.11%
O=C(O)c1nnn(-c2ccc(OC(F)(F)F)cc2)c1-c1ccncc1	-10.5%
Cc1cnn(C2CCCN(C(=O)CCCn3ccnc3C)C2)c1 (stereo not drawn)	19.3%
CCC(C)NC(=O)Nc1cccc(OC)c1 (stereo not drawn)	-5.26%
CCO[C@@H]1CCN(C(=O)c2ccnnc2)[C@@H]1Cc1cnn(C)c1	3.33%
NC(=O)c1ccc2c(c1)nc1n2CCN(Cc2ccco2)C1	-8.52%
O=c1c2ccccc2ncn1Cc1cc(C2CC2)[nH]n1	13.8%
CCN1CCN(C(=O)c2ccc(OC)nn2)c2ccccc21	-0.876%
COC(=O)C1CCCN1C(=O)c1cc(CC(C)C)no1 (stereo not drawn)	-1.76%
C[C@@H]1CN(C(=O)c2ccc(=O)[nH]c2)CC[C@@]1(O)C1CCOCC1	1.36%
CCN(CC)C(CNS(=O)(=O)c1ccc(C(=O)NC)cc1)c1ccco1 (stereo not drawn)	-8.07%

SMILES	cytotoxicity at 70.5 h
O=C1NC[C@@]2(C(=O)O)CN(Cc3cccc(CN4CCOCC4)c3)C[C@@H]12	1.62%
Cc1ccc2c(C(=O)N(C)C)cc(-c3cnn(CCO)c3)nc2c1C	-3.4%
CN(C)Cc1cncc2c1CCN(C1CCOCC1)C2	-8.32%
CC1(c2cc[nH]n2)CCN(C(=O)c2ccc(Cl)cc2)CC1	-4.57%
CCc1cc(NC(=O)C(c2cccc(F)c2)N2CCOCC2)[nH]n1 (stereo not drawn)	-4.49%
Cc1nc(C)c(CN2CCOC[C@H](Oc3ccccc3)C2)s1	-10.6%
O=C(Cc1ccccn1)N1C[C@H]2CN(Cc3ccccn3)C[C@H]2C1	-10%
CC[C@H](C)[C@H](NC(=O)Cc1csc(-c2cccc(Cl)c2)n1)C(=O)O	-27.4%
CC(C)NC(=O)C(c1ccccc1)N1CCn2c(nnc2C2CC2)C1 (stereo not drawn)	2.95%
CC(C#N)CN(C)Cc1cc(Cl)cc2cccnc12 (stereo not drawn)	-0.893%
C[C@@H]1CN(C2CCOC2)C[C@]12CCN(c1cccnc1)C2=O (stereo partly drawn)	-9.89%
CCCn1nc2c(cc1=O)CN(Cc1nc(C)c(C)o1)CC2	-9.42%
Cc1nnc(N2CC[C@H]3C[C@H](C(=O)N4CCOCC4)O[C@H]3C2)s1	-2.02%
CN1CCN(Cc2ccccc2Oc2nccc3occc23)CC1	-1.68%
Cc1ccc(N2CCCC(NCCS(C)(=O)=O)C2)nn1 (stereo not drawn)	-1.77%
c1cnnc(N2CCCC2CNc2nc3ccccc3o2)c1 (stereo not drawn)	-2.85%
CC(Cn1cccn1)NCc1nc(-c2cccnc2)no1 (stereo not drawn)	-3.96%
Cc1nn(C)c(C)c1-c1ccc(=O)n(C(C)C(=O)NCc2ccco2)n1 (stereo not drawn)	-7.42%
CCn1nccc1CN(C)c1nc(N)nc2c1nc(C)n2C	-3.81%
CCOCC(=O)Nc1ccc(-n2ccc(C(N)=O)n2)cc1	-5.89%
CN(Cc1cc2ccccc2o1)S(C)(=O)=O	-1.88%
CN1CCN(C[C@H]2CC[C@@H](Cc3ccc4c(c3)OCO4)O2)CC1	-6.19%
CO[C@@H]1CC[C@H]2[C@H]1OCCN2S(=O)(=O)c1cn(C)cn1	0.221%

SMILES	cytotoxicity at 70.5 h
CCCn1c(N2CCCC(C)C2)nc2c(C)nn(C)c2c1=O (stereo not drawn)	-14.3%
Cn1nc2c(cc1=O)CN(CC(=O)Nc1nccs1)CC2	-3.23%
Cc1ccsc1C(=O)Nc1cnn(CC(=O)NC2CCCC2)c1	23.1%
CCCSCC(=O)NCc1cccc(CN(C)CC)c1	-9.96%
COC(=O)c1cnc(C(=O)N(c2ccc(OC)c(F)c2)C(C)C)cn1	0.246%
CCCc1c(C(=O)NC2CCCC2)nnn1-c1ccc(OC)cc1	16.8%
O=C(CN1CCC2(CCCN(CCO)C2=O)C1)NCCc1ccccc1 (stereo not drawn)	11.6%
CN(CC1(O)CCN(c2ccccn2)C1)C(=O)Cc1ccsc1 (stereo not drawn)	-6.86%
N#Cc1ccc(C(=O)N(Cc2ccncc2)C2CC2)cc1	-6.43%
CC(C)OCCSCCn1nc2ccccn2c1=O	-12.9%
O=C(NC1CCOC1)c1cccc(S(=O)(=O)NCCCc2ncc[nH]2)c1 (stereo not drawn)	-13.4%
Cc1cc(NC(=O)Cc2ccccc2O)cnc1N1CCCCC1	-12.3%
Cc1ccc(=O)n(CC(=O)N(C)Cc2csc(-c3cccs3)n2)n1	-7.16%
COCc1nc(N(C)C)ncc1C(=O)OC	-4.46%
Cc1cc(CCC(N)=O)cc(C2CCCN2Cc2ccccn2)n1 (stereo not drawn)	-9.69%
CCN(CC1CN(Cc2cccc(C#N)c2)CCO1)c1cccnn1 (stereo not drawn)	0.605%
Cc1noc(C)c1CN1CC[C@H]2OCC[C@@H](C(=O)NCC3CC3)[C@H]2C1	-8.02%
O=C(c1cccnc1)N1CCSCC1	-16.5%
Cc1noc(C)c1CC(=O)NCCN1CCN(S(C)(=O)=O)CC1	0.0227%
CN1CCC2(CCN(CC3CCOCC3)CC2)C1=O	-10.4%
CCOc1ccc(-c2c(-c3ccccc3)ncn2C2CCNC2)cn1 (stereo not drawn)	-12.8%
NC1(c2nc(C(F)(F)F)cc(=O)[nH]2)CCCCC1	0.93%
COc1cc(C2C3=C(COC3=O)Nc3[nH]nc(C)c32)cc2c1OCO2 (stereo not drawn)	9.37%

SMILES	cytotoxicity at 70.5 h
CSCC(=O)N(C)Cc1cnn(-c2ccc(F)cc2)c1	3.1%
N#CCCN(Cc1ccco1)C(=O)Cc1ccc(-n2cnnn2)cc1	-6.73%
CNc1ncc(CN(C)Cc2cc(O)c3cc(F)ccc3n2)cn1	-8.18%
O=C(C1CC1)N1CC[C@H](c2nnc(-c3ccccc3F)o2)C1	-7.55%
Cn1ccc(C(=O)NCc2ccc(CN3CCCC3)cc2)cc1=O	-12.4%
CC(=O)N1CCC2(CC1)C(=O)N(C)c1ccc(F)cc12	-8.53%
Cc1nc(C(C)(C)C)sc1C(=O)NCCNc1ncccn1	-8.27%
Cc1cc(NCCOCCS(C)(=O)=O)nc2ccccc12	1.59%
O=C(c1ccc2c(c1)CCCC2)N1CCOCC1c1ncon1 (stereo not drawn)	2.82%
CCCS(=O)(=O)N1C[C@@H]2COC[C@@H](Cc3nc(C)no3)[C@@H]2C1	-1.7%
Cc1cccc(C(C(=O)NCc2nc(-c3ncccn3)no2)N(C)C)c1 (stereo not drawn)	-2.35%
Cc1cc(C)c(CNC(=O)N(C)Cc2ccoc2)c(=O)[nH]1	-2.92%
Cc1ccc(NC2CCCN(Cc3ccc(Cl)cc3)C2)nn1 (stereo not drawn)	25.4%
c1cncc(OCc2nc(C3CC3)nn2-c2ccc3c(c2)OCCO3)c1	14.2%
COc1ccccc1CN1C[C@@H](F)[C@@H](OCc2nc3ccccc3[nH]2)C1	-0.935%
N#Cc1ccc(CN(CCF)Cc2cccc(F)c2)cc1	6.81%
O=C1COc2ccc(Br)cc2CN1CC1CC1	-16.7%
Cc1cccc(C(=O)N2CCCC[C@]3(C)NC(=O)CCC[C@H]23)n1	-8.97%
CC(C)Nc1ncnc2c1CCN(C(=O)CCc1ccccc1)CC2	-3.23%
Cn1c(=O)oc2ccc(S(=O)(=O)N3CCC(c4ccccc4)C3)cc21 (stereo not drawn)	28.3%
COc1cccc([C@H]2CN(C(C)=O)[C@@H]3CCN(Cc4ccsc4)C[C@H]23)c1	-4.18%
c1cncc(O[C@H]2CC[C@H]3[C@H]2OCCN3C2CCC2)c1	-3.23%
O=C(c1cccc(F)c1F)N1CCn2c(nnc2C(F)(F)F)C1	-4.83%

SMILES	cytotoxicity at 70.5 h
Cn1ccc2c(-c3cc(N4CCCCC4)ncn3)ccnc21	24.9%
CN(CCN1CCOCC1)C(=O)C1(c2ccc(F)cc2F)CCC1	-2.7%
CCC(CC)c1cc(C(=O)N2CCN(CC(N)=O)CC2)on1	-6.02%
CCc1n[nH]c(C2CN(Cc3nccn3CC)CCO2)n1 (stereo not drawn)	22.2%
Cc1nc(Nc2ncccn2)cc(C2CCCN2C)n1 (stereo not drawn)	-7.58%
c1cn2c(n1)CN(Cc1ccsc1)CC(Cn1cncn1)C2 (stereo not drawn)	-11.2%
Cc1cc(NC(=O)C(C)NCCn2cccn2)no1 (stereo not drawn)	-0.681%
Cc1ccccc1-n1cc(CNc2ncnc3c2CCNCC3)cn1	-13.6%
CC1CCCN(c2ncc(C(=O)NCc3ccc(F)c(Cl)c3)c(N)n2)C1 (stereo not drawn)	19.8%
CN1CCC(C)(CN(C)Cc2ccc(CCC(C)(C)O)cc2)C1 (stereo not drawn)	-6.89%
COCCNC(=O)Cn1c(-c2cccc(Cl)c2)nc(C)c(CCO)c1=O	0.393%
O=C(NCCCN1CCOCC1)c1nc(-c2ccc3cc[nH]c3c2)no1	-16.3%
COc1ccc(OC)c(C(C)NC(=O)c2nn(C)c(C)c2Br)c1 (stereo not drawn)	27.1%
COc1c(Cl)cc(C(=O)NCc2n[nH]c(C)n2)cc1Cl	2.06%
COCCOc1ccc(NC(=O)N(C)Cc2ccsc2)cn1	3.32%
Cc1ccc(CC2CCCN2CC(=O)NCc2cccnc2)cc1 (stereo not drawn)	-15.4%
COc1ccccc1OCc1cc(C(=O)N2CCS(=O)(=O)CC2)n[nH]1	-6.21%
NC(=O)N1C[C@H]2CN(Cc3nccs3)C[C@H]2C1	-18.2%
Cc1[nH]nc2ncc(C(=O)N3CCN(C(C)(C)C)CC3)cc12	-0.02%
CN1C(=O)CC(C(=O)O)C12CCN(Cc1ccc(F)cc1Cl)CC2 (stereo not drawn)	-9.57%
COc1ccc(-c2cc(CN)ccc2F)c(OC)c1OC	6.26%
